Data: patent publication US6486199B1, “Spiro and dispiro 1,2,4-trioxolane antimalarials” (Medicines for Malaria Venture MMV International Centre …, priority 2001, dated 2002)
Values after ≈ are worked out from the molar mass of the structure shown. Read-outs that look alike come from different tables or passages of the source. Marks after values point to notes of the source that are not given here.

Experiments:
[1] = test system: chloroquine-sensitive NF54 strain of P. falciparum; test: in vitro screen against chloroquine-sensitive NF54 strain of P. falciparum; assay type: cell-based; conditions: for IC50: Plasmodium falciparum, NF54, read-out: IC50 (ng/ml) NF54
[2] = differential scanning calorimetry (DSC), thermal stability; assay type: physicochemical; conditions: thermal decomposition
[3] = test system: adult schistosomes (49-day-old) of Schistosoma mansoni; test: effect on adult schistosomes (49-day-old) in mice; assay type: in vivo; conditions: single 400 mg/kg per os; for TWR (%): total worm reduction rate; for Mean total worm burden: x ± SD
Method: (§1) Mice were infected with 100 Schistosoma mansoni cercariae on day 49 post-treatment. Each group was treated per os with OZ compounds at a single dose of 400 mg/kg. Untreated mice served as the control. All groups were killed 4 weeks after treatment and the liver and intestine were removed and separated. The liver and intestine were compressed and alive male and female worms could be seen and counted.

[4] = test system: 21-day-old schistosomules of Schistosoma mansoni; test: effect on 21-day-old schistosomules in mice; assay type: in vivo; conditions: single 200 mg/kg per os; for FWR (%): female worm reduction rate; for Mean female worm burden: mean ± standard deviation; for TWR (%): total worm reduction rate
Method: as §1, with “Mice were infected with 100 Schistosoma mansoni cercariae on day 49 post-treatment.” left out, “200” for “400”, “counted. The effect of the compounds was evaluated by mean total and female worm burden.” for “counted.”

[5] = test system: chloroquine-resistant K1 strain of P. falciparum; test: in vitro screen against chloroquine-resistant K1 strain of P. falciparum; assay type: cell-based; conditions: for IC50: Plasmodium falciparum, K1, read-out: IC50 (ng/ml) K1
[6] = test system: ANKA strain of P. Berghei; test: single dose STI in vivo screen in infected Moro SPF mice; conditions: for Activity (%) po / Activity (%) sc: percent reduction in parasitemia day 3 post-infection; for Activity (%) po / Survival (days) po: single 10 mg/kg po; for Activity (%) sc / Survival (days) sc: single 10 mg/kg sc; for in vivo activity: 10 mg/kg po/sc data of Table 2
P. berghei = test: 1-day Peters test against P. berghei in vivo

SMILES	IC50 [1] [ng/mL]	Tm dec. (° C.) [2] [°C]	Percentage of dead worm [3]	Total dead worm [3]	TWR (%) [3] [%]	Mean total worm burden [3]	FWR (%) [4] [%]	Mean female worm burden [4]	TWR (%) [4] [%]	IC50 [5] [ng/mL]	Activity (%) po [6]	Activity (%) sc [6]	Survival (days) po [6]	Survival (days) sc [6]	in vitro potency, fold less potent than the analog ([5]; in vitro)	in vivo activity [6]	further results
O=[N+]([O-])c1ccc(NN=C2CCC3(CC2)OOC2(O3)C3CC4CC(C3)CC2C4)c([N+](=O)[O-])c1 (stereo not drawn) [OZ29, Adamantane-2-spiro-3′-1′,2′,4′-trioxaspiro[4.5] decan-8′-one 2,4-dinitrophenylhydrazone]	13 (≈ 0.0284 µM)	155.7	0	0	13.4	31.0 ± 13.7^a	20	10.0 ± 3.7^a	28	9.7 (≈ 0.0212 µM)	0/0%	0/0%	5.0/5.0 days	5.0/5.0 days	–	–	–
CC1(C)COC2(CCC3(CC2)OOC2(CC(C)(C)CC(C)(C)C2)O3)OC1 [OZ36, 2,2,4,4,14,14-Hexamethyl-7,12,16,19,20-pentaoxatrispiro[5.1.2.5.2.2]icosane]	62 (≈ 0.168 µM)	201.7	0	0	0	40.2 ± 12.2	12	11.0 ± 4.0^a	16	24 (≈ 0.0651 µM)	0/0%	0/0%	5.7/5.7 days	5.7/5.7 days	~20 fold	all in vivo activity was lost	–
O=C1CCC2(CC1)OOC1(CCCCCCCCCCC1)O2 [OZ21, 3-Oxo-7,20,21-trioxadispiro[5.1.11.2]heneicosane]	25 (≈ 0.0805 µM)	190.7	0	0	0	36.2 ± 9.0	0	15.0 ± 9.7	0	14 (≈ 0.0451 µM)	0/0%	0/0%	–	–	70 fold	all in vivo activity was lost	–
O=C1CCC2(CCO1)OOC1(O2)C2CC3CC(C2)CC1C3 (stereo not drawn) [OZ17, Adamantane-2-spiro-3′-9′-oxo-1′,2′,4′,8′-tetraoxaspiro[4.6]undecane]	–	158.4	5.2 (10/191)	10	0	36.2 ± 13.8	7	11.6 ± 3.3^a	23	–	–	–	–	–	–	–	IC50 (ng/ml) NF54 ([1]; in vitro, NF54 strain): > 100 ng/mL; IC50 (ng/ml) K1 ([5]; in vitro, K1 strain): 85 ng/mL (≈ 0.289 µM)
C1CCCCCC2(CCCCC1)OOC1(O2)C2CC3CC(C2)CC1C3 (stereo not drawn) [OZ20, Adamantane-2-spiro-3′-1′,2′,4′-trioxaspiro[4.11]hexadecane]	20 (≈ 0.0574 µM)	170.5	0	0	0	38.6 ± 3.6	0	13.8 ± 5.5	0	15 (≈ 0.043 µM)	–	–	–	–	order of magnitude	–	P. berghei (1 day) ED90 sc (P. berghei; 1 day, sc): 10 mg/kg; ED50 (P. berghei; Plasmodium berghei, po, 24 h, read-out: P. berghei (1 day) ED50 po): 4.3 mg/kg; ED90 (P. berghei; Plasmodium berghei, po, 24 h, read-out: P. berghei (1 day) ED90 po): 9.7 mg/kg; ED50 (P. berghei; Plasmodium berghei, sc, 24 h, read-out: P. berghei (1 day) ED50 sc): 7.1 mg/kg
